The text below walks through data of patent publication US10947213B1 (Merck Patent GmbH, priority 2015, dated 2021).

Where a name gives a salt, the structure may show the parent alone.

The assay addresses T1, TLR7/NFKb HEK cells (Homo sapiens, UniProt Q9NYK1).
T1 construct: expressed in transfected cells; host or cells: HEK cells (TLR7/NFKb reporter line)
T1 sequence (Q9NYK1 27-1049): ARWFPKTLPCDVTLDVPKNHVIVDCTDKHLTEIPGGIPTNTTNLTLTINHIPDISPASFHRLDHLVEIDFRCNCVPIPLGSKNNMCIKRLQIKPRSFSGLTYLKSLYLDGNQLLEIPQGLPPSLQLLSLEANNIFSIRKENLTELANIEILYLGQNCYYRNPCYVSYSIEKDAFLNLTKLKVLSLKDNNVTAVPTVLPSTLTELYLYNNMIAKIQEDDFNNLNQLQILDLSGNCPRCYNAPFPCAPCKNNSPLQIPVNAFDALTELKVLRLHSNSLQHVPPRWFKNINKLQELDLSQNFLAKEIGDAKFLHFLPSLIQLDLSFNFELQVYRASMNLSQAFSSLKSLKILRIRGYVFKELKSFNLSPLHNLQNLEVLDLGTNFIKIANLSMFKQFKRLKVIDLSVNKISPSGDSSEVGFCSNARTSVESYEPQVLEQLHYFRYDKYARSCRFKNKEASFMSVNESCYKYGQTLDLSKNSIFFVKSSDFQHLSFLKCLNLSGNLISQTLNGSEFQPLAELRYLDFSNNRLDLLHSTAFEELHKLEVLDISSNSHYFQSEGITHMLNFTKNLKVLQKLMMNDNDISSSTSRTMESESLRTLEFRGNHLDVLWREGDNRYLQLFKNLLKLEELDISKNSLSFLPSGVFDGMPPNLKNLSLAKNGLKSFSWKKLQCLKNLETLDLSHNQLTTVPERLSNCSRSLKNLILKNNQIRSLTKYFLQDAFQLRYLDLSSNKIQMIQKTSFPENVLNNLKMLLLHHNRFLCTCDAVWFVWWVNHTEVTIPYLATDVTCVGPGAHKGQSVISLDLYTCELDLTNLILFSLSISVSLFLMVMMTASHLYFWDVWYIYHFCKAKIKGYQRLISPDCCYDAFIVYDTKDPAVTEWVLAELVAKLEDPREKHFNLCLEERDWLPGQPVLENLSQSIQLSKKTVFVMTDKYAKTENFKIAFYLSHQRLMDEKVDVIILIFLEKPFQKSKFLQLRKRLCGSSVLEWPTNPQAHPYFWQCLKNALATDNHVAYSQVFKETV
Nature of the assay: HEK Cell Assay (TLR7/NFKb reporter, Steady-Glo luciferase readout). Conditions: 30 min compound preincubation, then R*48 agonist for 5 hours, read-out: Potency. Type of assay: cell-based. In outline: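 Steady-Glo luminescence after 5 h stimulation with R*48 agonist, following 30 min compound preincubation. Assay run in HEK cells carrying a TLR7/NFKb luciferase reporter, plated at 5000 cells/well and grown 24 h at 37° C (10% CO2) before treatment.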

For `Cc1cc(F)c(N2C[C@@H](C)C[C@@H](N)C2)c2cccnc12` [Compound 489, (3R,5S)-1-(6-Fluoro-8-methyl-quinolin-5-yl)-5-methyl-piperidin-3-ylamine], the IC50 is less than 1000 nM.

With `C[C@H]1C[C@@H](NC(=O)C2(CO)CC2)CN(c2ccc(C#N)c3nccnc23)C1` [Compound 162, N-[(3R,5S)-1-(8-cyanoquinoxalin-5-yl)-5-methylpiperidin-3-yl]-1-(hydroxymethyl)cyclopropane-1-carboxamide], the IC50 fell in the range of 1000 to 10000 nM.

Regarding `C[C@H]1C[C@@H](NC(=O)CN2CCN(C)CC2)CN(c2ccc(C(F)(F)F)c3ncccc23)C1` [Compound 243, N-[(3R,5S)-5-methyl-1-[8-(trifluoromethyl)quinolin-5-yl]piperidin-3-yl]-2-(4-methylpiperazin-1-yl)acetamide], the IC50 is less than 1000 nM.

Take `C[C@H]1C[C@@H](N)CN(c2ccc(C#N)c3nsnc23)C1` [Compound 552, 7-((3R,5S)-3-Amino-5-methyl-piperidin-1-yl)-benzo[1,2,5]thiadiazole-4-carbonitrile hydrochloride]: the IC50 is less than 1000 nM.

Consider `C[C@H]1C[C@@H](NC2CCN(C)C2=O)CN(c2ccnc3nccnc23)C1` (stereo partly drawn) [Compound 126, 1-methyl-3-[[(3R,5S)-5-methyl-1-[pyrido[2,3-b]pyrazin-8-yl]piperidin-3-yl]amino]pyrrolidin-2-one], for which the IC50 was greater than 10000 nM.

In the case of `CN1CCC(CNC(=O)C2CN(c3ccc(C#N)c4ncccc34)CC(F)(F)C2)CC1` (stereo not shown) [Compound 531, 1-(8-Cyano-quinolin-5-yl)-5,5-difluoro-piperidine-3-carboxylic Acid (1-methyl-piperidin-4-ylmethyl)-amide], the IC50 is less than 1000 nM.

`Cc1ncc(N2C[C@@H](C)C[C@@H](NC(=O)CC3CCN(C)C3)C2)c2cccnc12` (stereo partly drawn) [Compound 560, N-[(3R,5S)-5-Methyl-1-(8-methyl-[1,7]naphthyridin-5-yl)-piperidin-3-yl]-2-(1-methyl-pyrrolidin-3-yl)-acetamide]: the IC50 was less than 1000 nM.

With `C[C@H]1C[C@@H](NC(=O)C(N)C(F)(F)F)CN(c2ccnc3nccnc23)C1` (single isomer, unassigned) [Compound 114, hydrochloride], the IC50 is greater than 10000 nM.

As for `CC(Cl)C(=O)NC1CN(c2ccc(C#N)c3nccnc23)CC(F)(F)C1` (stereo not shown) [Compound 506, 2-Chloro-N-[1-(8-cyano-quinoxalin-5-yl)-5,5-difluoro-piperidin-3-yl]-propionamide], the IC50 is 1000 to 10000 nM.

As to `O=C(NC1CCN(CC2CC2)C1)C1CCN(c2ccc(C(F)(F)F)c3ncccc23)CC1` (single isomer, unassigned) [Compound 444], the IC50 is less than 1000 nM.

As to `CCN(C)CC(=O)NCC1CCN(c2ccc(C#N)c3ncccc23)CC1` [Compound 410, N-[1-(8-Cyano-quinolin-5-yl)-piperidin-4-ylmethyl]-2-(ethyl-methyl-amino)-acetamide], the IC50 is less than 1000 nM.

`C[C@H]1C[C@@H](NC(=O)CC(O)C(C)(C)C)CN(c2ccc(C#N)c3nccnc23)C1` (single isomer, unassigned) [Compound 147]: the IC50 is less than 1000 nM.

`C[C@H]1C[C@@H](NC(=O)CNS(C)(=O)=O)CN(c2ccc(C(F)(F)F)c3ncccc23)C1` [Compound 474, 2-Methanesulfonylamino-N-[(3R,5S)-5-methyl-1-(8-trifluoromethyl-quinolin-5-yl)-piperidin-3-yl]-acetamide]: the IC50 fell in the range of 1000 to 10000 nM.

With `C[C@H]1C[C@@H](NC(=O)CC2CC2(F)F)CN(c2ccc(C(F)F)c3ncccc23)C1` (stereo partly drawn) [Compound 310, 2-(2,2-difluorocyclopropyl)-N-[(3R,5S)-1-[8-(difluoromethyl)quinolin-5-yl]-5-methylpiperidin-3-yl]acetamide], the IC50 is less than 1000 nM.

For the compound `CN1CCCC1C(=O)NCC1CCN(c2ccnc3nccnc23)CC1` (stereo not shown) [Compound 411, 1-Methyl-pyrrolidine-2-carboxylic acid (1-pyrido[2,3-b]pyrazin-8-yl-piperidin-4-ylmethyl)-amide], the IC50 is 1000 to 10000 nM.

On to `COCCN[C@@H]1C[C@H](C)CN(c2ccnc3nccnc23)C1` [Compound 18, (3R,5S)—N-(2-methoxyethyl)-5-methyl-1-(pyrido[2,3-b]pyrazin-8-yl)piperidin-3-amine], for which the IC50 was greater than 10000 nM.

`C[C@H]1C[C@@H](NC(=O)C(O)C2CC2)CN(c2ccc(C(F)(F)F)c3ncccc23)C1` (single isomer, unassigned) [Compound 521]: the IC50 is less than 1000 nM.

For `C[C@H]1C[C@@H](NC(=O)CC2CCN(C)CC2)CN(c2ccc(C(F)F)c3ncccc23)C1` [Compound 316, N-[(3R,5S)-1-[8-(difluoromethyl)quinolin-5-yl]-5-methylpiperidin-3-yl]-2-(1-methylpiperidin-4-yl)acetamide], the IC50 was less than 1000 nM.

Regarding `CC(C)(C)NCC(=O)NCC1CCN(c2ccnc3nccnc23)CC1` [Compound 406, 2-tert-Butylamino-N-(1-pyrido[2,3-b]pyrazin-8-yl-piperidin-4-ylmethyl)-acetamide], the IC50 lay within 1000 to 10000 nM.

As for `C[C@H]1C[C@@H](NC(=O)CC2CCN(C)CC2)CN(c2ccc(C#N)c3nccnc23)C1` [Compound 232, N-[(3R,5S)-1-(8-cyanoquinoxalin-5-yl)-5-methylpiperidin-3-yl]-2-(1-methylpiperidin-4-yl)acetamide], the IC50 is less than 1000 nM.

With `C[C@@H]1CN(c2ccnc3nccnc23)C[C@H](CN2CCC(N3CCCC3)CC2)O1` [Compound 56, (2R,6S)-2-methyl-4-(pyrido[2,3-b]pyrazin-8-yl)-6-((4-(pyrrolidin-1-yl)piperidin-1-yl)methyl)morpholine], the IC50 lay within 1000 to 10000 nM.

Take `O=C(NCCN1CCCCC1)C1CCN(c2ccc(C(F)(F)F)c3ncccc23)CC1` [Compound 441, 1-(8-Trifluoromethyl-quinolin-5-yl)-piperidine-4-carboxylic Acid (2-piperidin-1-yl-ethyl)-amide]: the IC50 was less than 1000 nM.

Take `N#Cc1ccc(N2C[C@H](NC(=O)NCC3CC(F)(F)C3)C[C@H](C(F)(F)F)C2)c2cccnc12` [Compound 580, 1-[(3R,5S)-1-(8-Cyano-quinolin-5-yl)-5-trifluoromethyl-piperidin-3-yl]-3-(3,3-difluoro-cyclobutylmethyl)-urea]: the IC50 was 1000 to 10000 nM.

With `C[C@H]1C[C@@H](NC(=O)CN(C)C)CN(c2ncc(F)c3nccnc23)C1` [Compound 460, 2-Dimethylamino-N-[(3R,5S)-1-(8-fluoro-pyrido[3,4-b]pyrazin-5-yl)-5-methyl-piperidin-3-yl]-acetamide], the IC50 is greater than 10000 nM.

On to `CC(=O)N[C@@H]1C[C@H](C)CN(c2ccc(C(F)(F)F)c3ncccc23)C1` [Compound 517, N-[(3R,5S)-5-Methyl-1-(8-trifluoromethyl-quinolin-5-yl)-piperidin-3-yl]-acetamide], for which the IC50 is less than 1000 nM.

With `CC1(C)C[C@@H](NC(=O)CO)CN(c2ccc(C#N)c3nccnc23)C1` [Compound 218, N-[(3R)-1-(8-cyanoquinoxalin-5-yl)-5,5-dimethylpiperidin-3-yl]-2-hydroxyacetamide], the IC50 lay in the range of 1000 to 10000 nM.

`CC(O)C(=O)N[C@@H]1C[C@H](C)CN(c2ccc(C(F)F)c3nccnc23)C1` (stereo partly drawn) [Compound 79, N-[(3R,5S)-1-[8-(difluoromethyl)quinoxalin-5-yl]-5-methylpiperidin-3-yl]-2-hydroxypropanamide]: the IC50 was 1000 to 10000 nM.

Consider `N#Cc1ccc(N2CCC(C(=O)NCCN3CCCCC3)CC2)c2nccnc12` [Compound 440, 1-(8-Cyano-quinoxalin-5-yl)-piperidine-4-carboxylic Acid (2-piperidin-1-yl-ethyl)-amide], for which the IC50 was less than 1000 nM.

Turning to `C[C@H]1C[C@@H](NC(=O)[C@@H](C)N)CN(c2ccnc3nccnc23)C1` [Compound 26, (R)-2-amino-N-((3R,5S)-5-methyl-1-(pyrido[2,3-b]pyrazin-8-yl)piperidin-3-yl)propanamide], the IC50 was 1000 to 10000 nM.

On to `C[C@H]1C[C@@H](NC(=O)CC(O)C(C)(C)C)CN(c2ccc(C#N)c3nccnc23)C1` (single isomer, unassigned) [Compound 146], for which the IC50 is less than 1000 nM.

`COc1ccc(N2C[C@@H](C)C[C@@H](NC(=O)CC(C)(C)C)C2)c2nccnc12` [Compound 202, N-[(3R,5S)-1-(8-methoxyquinoxalin-5-yl)-5-methylpiperidin-3-yl]-3,3-dimethylbutanamide]: the IC50 fell in the range of 1000 to 10000 nM.
